Test results reported in patent publication US4687773A, “(+)-N-N-propylnorapomorphine and selective limbic activity” (priority 1985, dated 1987).
Like-named read-outs stand apart in the source and are kept apart here.

Key:
Dopamine Receptors [1] = assay type: binding, calf; settings: ligand [3H]ADTN (0.5 nM)
Dopamine Receptors [2] = assay type: binding, calf; settings: ligand [3H]APO (0.5 nM)
[3] = test system: dopamine (DA) receptors in the limbic system and basal ganglia; experiment: Total motor activity, electronic activity monitor (EAM); assay type: in vivo, rat
Experimental: (§1) Activity: Overall motor activity was measured by use of the self-recording Stoelting electronic activity monitor method described previously by Stewart, Campbell, Sperk, and Baldessarini^9. Total activity is obtained by setting monitor sensitivity so as to detect both locomotion and small movements (such as grooming, sniffing, and chewing) as would be prominent in stereotyped responses that tend to diminish locomotion and increase sniffing, licking, and chewing movements. Locomotor activity is detected selectively by setting monitor sensitivity to detect large, locomotor movements, and to minimize smaller movements already described.
(§2) All data presented in the Tables below are expressed as the mean results from 4-6 rats per condition, ±S.E.M. Stereotypy is expressed in rating units (maximum=3.0) and activity is expressed in arbitrary units of percent change, derived from EAM counts per unit time, relative to activity in control (saline) animals set at zero.
All the posttreatment doses of (+)APO were 3.0 mg/kg, s.c. The data
All posttreatment doses of (+)NPA were 3 mg/kg, s.c. The data are similar

[4] = test system: dopamine (DA) receptors in the limbic system; experiment: Locomotor activity (spontaneous or aroused by (-)APO / (-)NPA), electronic activity monitor; assay type: in vivo, rat
[5] = test system: DA in the corpus striatum (basal ganglia); experiment: Head posture (contralateral head deviation) after intrastriatal DA; assay type: in vivo, rat; settings: intrastriatal DA 16 μg; aporphine 3 mg/kg systemic (route not given)
[6] = test system: DA in the limbic system (nucleus accumbens septi); experiment: Arousal (locomotor activity) induced by DA injected into nucleus accumbens septi; assay type: in vivo, rat; settings: for activity counts (arousal induced by 16 μg DA in accumbens): 30 min, DA control 238 ± 38
Experimental: An experiment shown in Table 9 involves testing the effects of S(+) isomers of apomorphine (APO) and N-propylnorapomorphine (NPA) given systemically (intraperitoneally, ip), as well as S(+) methylenedioxy-N-propylnorapomorphine (MDO-NPA) given ip or orally (po, by orogastric intubation). […]. […] Activity was monitored for 30 min after injection of DA into the brain, which was done at 10 min after systemic dosing with an S(+)aporphine test compound.
Data are mean activity counts ± SEM (N = 6) for rats given DA into the
medial accumbens after pretreatment with an inhibitor of monoamine oxidas
(MA0), and monitored on EAM for 30 min (aporphine given 10 min before DA
systemicallyintraperitoneally [ip] or orally [po].

[7] = test system: dopamine (DA) receptors in the basal ganglia (corpus striatum); experiment: Stereotyped licking and gnawing behavior rating in the rat; assay type: in vivo
Description: Stereotypy: The mean stereotyped licking and gnawing behavioral rating scheme developed by Tarsy and Baldessarini^8 was used. […]
Stereotypy scores were rated for one hour as described in […]

[8] = test system: dopamine (DA) receptors in the limbic system; experiment: Locomotor activity (spontaneous or aroused by (-)APO / (-)NPA), electronic activity monitor; assay type: in vivo, rat; remark: listed apart in the source
Experimental: as §1
Rats (mean N=6 per condition) were tested for locomotor activity for 60 min following a single dose of (-)APO (0.3 mg/kg, SC), or its vehicle ("placebo" condition). The S(+) isomers were administered in a range of doses from 0 or 0.1 to 30 mg/kg, SC immediately following injection of (-)APO or its vehicle. Data are presented in FIG. 2 as mean EAM activity counts per hour SEM. In that figure, the dashed line labeled "control" represents the mean activity of rats given vehicle only and no aporphine (SD values are indicated by parallel light lines above and below the control mean).
Test agents (11substituted-N--propylnoraporphine isomers were given at a
dose of 3 mg/kg, ip (in 2 ml/kg) just prior to (-)apomorphine (APO, at 0.
mg/kg, ip, in 1 ml/kg) to rats (N = 6) tested in an electronic activity

[9] = molecular target: T1, rat liver catechol O-methyl-transferase (COMT) (Rattus norvegicus, UniProt P22734); experiment: Isomeric substrate selectivity for rat liver COMT; assay type: biochemical
T1 construct: partially purified rat liver catechol O-methyl-transferase (COMT); from tissue; host or cells: rat liver, ammonium sulfate precipitation and dialysis
T1 sequence (P22734 1-221 isoform P22734-2): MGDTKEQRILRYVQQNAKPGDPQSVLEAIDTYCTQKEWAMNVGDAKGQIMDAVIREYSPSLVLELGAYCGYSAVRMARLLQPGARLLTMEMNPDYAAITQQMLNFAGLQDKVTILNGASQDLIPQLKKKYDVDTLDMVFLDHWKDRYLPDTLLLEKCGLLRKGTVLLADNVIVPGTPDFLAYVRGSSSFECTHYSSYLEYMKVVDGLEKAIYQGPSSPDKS

[10] = molecular target: T2, Dopamine (DA) sensitive adenylate cyclase (Rattus norvegicus, UniProt P18901); experiment: Stimulation of formation of cyclic AMP in rat striatal homogenate; assay type: biochemical
T2 construct: homogenates of rat corpus striatum; from tissue; host or cells: rat corpus striatum homogenate
Description: assayed in homogenates of corpus striatum obtained from rat brain. The
method of assay of the activity of DAsensitive adenylate cyclase by the
rate of formation of cAMP above a basal (no agonist) level is described
under Experimental Section. The data are mean values of cAMP levels in […]

[11] = Catalepsy (latency to resume normal posture); assay type: in vivo, rat; settings: s.c., maximum 18.0
Experimental: Catalepsy: This measure of muscle rigidity is assessed by having animals in abnormal body positions and timing their duration of maintaining these. This is done by placing rats on a wire grid placed at a 45° angle to the benchtop, or by placing their forelimbs on a raised horizontal metal bar, and timing the latency to resume a normal posture by stopwatch.
as §2

[12] = Table 4, (+)APO 3.0 mg/kg s.c. after (-)APO 0.3 mg/kg
[13] = Table 4, (+)APO 3.0 mg/kg s.c. after (-)APO 1.0 mg/kg
[14] = Table 4, (+)APO 3.0 mg/kg s.c. after (-)APO 3.0 mg/kg
[15] = Table 4, (+)APO 3.0 mg/kg s.c., (-)APO 0
[16] = Table 5, (-)NPA 0.3 mg/kg + saline
[17] = Table 5, (-)NPA 3.0 mg/kg + saline
[18] = 2.5 min, read-out: cAMP production, % of control

T2 sequence (P18901 whole entry): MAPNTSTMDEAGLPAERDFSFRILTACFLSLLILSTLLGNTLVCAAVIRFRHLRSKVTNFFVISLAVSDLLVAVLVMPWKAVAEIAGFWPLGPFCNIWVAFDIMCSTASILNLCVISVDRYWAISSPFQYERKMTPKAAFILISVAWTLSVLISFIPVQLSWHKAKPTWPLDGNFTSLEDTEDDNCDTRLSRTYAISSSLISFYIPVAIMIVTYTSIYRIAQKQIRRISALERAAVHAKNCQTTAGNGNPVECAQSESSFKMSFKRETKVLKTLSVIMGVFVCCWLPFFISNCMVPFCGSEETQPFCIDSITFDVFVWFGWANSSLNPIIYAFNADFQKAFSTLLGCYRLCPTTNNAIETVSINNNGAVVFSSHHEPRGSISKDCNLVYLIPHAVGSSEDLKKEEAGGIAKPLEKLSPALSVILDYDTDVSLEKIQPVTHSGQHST

For `CCCN1CCc2cccc3c2C1Cc1ccc(O)c(O)c1-3` (racemic) [(±)-NPA, (RS)-N-n-Propylnorapomorphine], the IC50 (Dopamine Receptors [1]) was 3.5 nM and the IC50 (Dopamine Receptors [2]) was 5 nM.

For `CN1CCc2cccc3c2[C@@H]1Cc1ccc(O)c(O)c1-3` [(+)APO, S(+) isomers of apomorphine (APO)], the “Total Activity” value [3, 12] was 36.2 ± 0.92 percent change, the “Total Activity” value [3, 13] was 44.6 ± 0.75 percent change and the “Total Activity” value [3, 14] was 62.0 ± 0.48 percent change. The “Total Activity” value [3, 15] was -0.62 ± 0.33 percent change, the Locomotion [4, 13] was 43.0 ± 5.2 percent change and the “Contralateral Head Deviation, Percent of Total” value [5] was 57.2% of Total. For the same compound, the “Contralateral Head Deviation, Time” value [5] was 412 ± 53 s, the “activity counts (arousal induced by 16 μg DA in accumbens)” value (“activity counts” for short) ([6]; 0.3 mg/kg ip) was 246 ± 41 activity counts and the “activity counts” value ([6]; 1.0 mg/kg ip) was 190 ± 37 activity counts. For the same compound, the “activity counts” value ([6]; 3.0 mg/kg ip) was 125 ± 19 activity counts, the ED50 ([6]; Rattus norvegicus, ip, DA 16 μg in accumbens, read-out: ID50 (the source's name)) was 4 mg/kg and the ID50 ([6]; ip, DA 16 μg in accumbens) was 3.6 mg/kg. The “Stereotypy Score” value [7, 12] was 0.89 ± 0.36 rating units, the “Stereotypy Score” value [7, 13] was 1.92 ± 0.21 rating units and the “Stereotypy Score” value [7, 14] was 2.93 ± 0.32 rating units. For the same compound, the “Stereotypy Score” value [7, 15] was 0.32 ± 0.62 rating units, the Locomotion [8, 12] was 36.2 ± 4.3 percent change and the Locomotion [8, 14] was 42.1 ± 6.3 percent change. For the same compound, the Locomotion [8, 15] was -0.84 ± 0.22 percent change, the “ID50 to reduce the locomotor activating actions of (-)APO” value ([8]; s.c., (-)APO 0.3 mg/kg) was 4 mg/kg and the “ID50, spontaneous locomotor arousal” value ([8]; spontaneous activity) was greater than 50 mg/kg.

For `CCCN1CCc2cccc3c2[C@H]1Cc1ccc(O)c(O)c1-3` [(-)NPA, (R)-N-n-propylnorapomorphine], the “Total Activity” value ([3]; Table 3, 0.1 mg/kg, s.c.) was 2.0 ± 1.8 percent change vs. placebo con, the “Total Activity” value ([3]; Table 3, 0.3 mg/kg, s.c.) was 2.1 ± 3.2 percent change vs. placebo con and the “Total Activity” value ([3]; Table 3, 3.0 mg/kg, s.c.) was 231.4 ± 37 percent change vs. placebo con. For the same compound, the “Total Activity” value [3, 16] was 22.1 ± 3.7 percent change, the “Total Activity” value [3, 17] was 231.4 ± 37 percent change and the IC50 (Dopamine Receptors [1]) was 2 nM. The Locomotion [4, 17] was 10.2 ± 6.3 percent change, the “Vmax (range of two experiments)” value ([9]; footnote range) was 8.9-11.1 (pmol/assay)/h and the Vmax ([9]; mean, substrate of rat liver COMT) was 10.0 (pmol/assay)/h. It also gave a cAMP production ([10]; 1 μM) of 3.71 ± 0.31 picomoles per 2.5 min, a cAMP production ([10]; 5 μM) of 4.57 ± 0.13 picomoles per 2.5 min and a cAMP production ([10]; 10 μM) of 5.34 ± 0.27 picomoles per 2.5 min. It also gave a cAMP production ([10]; 50 μM) of 5.71 ± 0.24 picomoles per 2.5 min, a cAMP production ([10]; 100 μM) of 5.56 ± 0.24 picomoles per 2.5 min and a cAMP formation, % of control at 1 µM [10, 18] of 150%. For the same compound, the cAMP formation, % of control at 5 µM [10, 18] was 184%, the cAMP formation, % of control at 10 µM [10, 18] was 215% and the cAMP formation, % of control at 50 µM [10, 18] was 230%. The cAMP formation, % of control at 100 µM [10, 18] was 224%, the IC50 (Dopamine Receptors [2]) was 2.5 nM and the “Stereotypy Score” value ([7]; Table 1, (-) isomer 3 mg/kg, s.c., ± saline, maximum 3.0) was 2.9 ± 0.1 rating units. The “Stereotypy Score” value ([7]; Table 3, 0.1 mg/kg, s.c., maximum 3.0) was 1.1 ± 0.2 rating units, the “Stereotypy Score” value ([7]; Table 3, 0.3 mg/kg, s.c., maximum 3.0) was 2.0 ± 0.3 rating units and the “Stereotypy Score” value ([7]; Table 3, 3.0 mg/kg, s.c., maximum 3.0) was 2.9 ± 0.9 rating units. For the same compound, the “Stereotypy Score” value ([7]; Table 3, 5.0 mg/kg, s.c., maximum 3.0) was 3.0 ± 0.0 rating units, the “Stereotypy Score” value [7, 16] was 2.0 ± 0.2 rating units and the “Stereotypy Score” value [7, 17] was 2.8 ± 0.4 rating units. The Catalepsy score ([11]; 0.1 mg/kg) was 0.5 ± 0.2, the Catalepsy score ([11]; 3.0 mg/kg) was 0.8 ± 0.3 and the Locomotion [8, 16] was 48.1 ± 9.2 percent change.
